Assay results reported in patent publication US11306078B2, “Piperidine CXCR7 receptor modulators” (IDORSIA PHARMACEUTICALS LTD., priority 2016, dated 2022).

Molecular target: human chemokine receptor CXCR7 (Homo sapiens (Human), UniProt P25106)
Assay: Tango CXCR7-bla U2OS beta-arrestin recruitment assay (beta-lactamase reporter, FRET), antagonism of CXCL12/SDF1-α;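 also: compounds preincubated 15 min before CXCL12 addition, then 22 h at 37 °C, FRET emission ratio read with CCF4-AM substrate after 2 h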
Assay type: cell-based
Conditions: antagonistic effect on CXCR7; Tango CXCR7-bla U2OS cells, CXCL12/SDF1-α at its EC80

Sequence of human chemokine receptor CXCR7 (P25106 whole entry): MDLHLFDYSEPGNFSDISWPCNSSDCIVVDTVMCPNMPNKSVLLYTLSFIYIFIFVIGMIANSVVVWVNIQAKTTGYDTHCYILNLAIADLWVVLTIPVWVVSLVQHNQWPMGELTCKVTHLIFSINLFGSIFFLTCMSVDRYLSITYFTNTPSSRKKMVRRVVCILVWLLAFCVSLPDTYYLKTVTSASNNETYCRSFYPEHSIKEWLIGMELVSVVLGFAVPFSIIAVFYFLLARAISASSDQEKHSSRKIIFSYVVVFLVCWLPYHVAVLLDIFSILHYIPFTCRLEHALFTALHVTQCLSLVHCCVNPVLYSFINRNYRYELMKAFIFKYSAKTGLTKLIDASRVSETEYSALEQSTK

Compound	IC50 [nM]
O=C(N[C@H]1CCN(CC2CC2)C[C@@H]1C(=O)NC1(c2ncccn2)CC1)c1noc(-c2ccc(F)cc2)c1F [Example 7.001, (3S,4S)-1-Cyclopropylmethyl-4-{[4-fluoro-5-(4-fluoro-phenyl)-isoxazole-3-carbonyl]-amino}-piperidine-3-carboxylic Acid (1-pyrimidin-2-yl-cyclopropyl)-amide]	32
O=C(N[C@H]1CCN(CC2CC2)C[C@@H]1C(=O)NC1(c2ncccn2)CC1)c1nc(-c2ccc(F)cc2F)co1 [Example 7.01]	60
Cc1ccccc1-c1cc(C(=O)N[C@H]2CCN(CC3CC3)C[C@@H]2C(=O)NC2(c3ncccn3)CC2)no1 [Example 7.002, (3S,4S)-1-Cyclopropylmethyl-4-[(5-o-tolyl-isoxazole-3-carbonyl)-amino]-piperidine-3-carboxylic acid (1-pyrimidin-2-yl-cyclopropyl)-amide]	308
Cc1ccc(-c2cc(C(=O)N[C@H]3CCN(CC4CC4)C[C@@H]3C(=O)NC3(c4ncccn4)CC3)no2)cc1C [Example 7.003, (3S,4S)-1-Cyclopropylmethyl-4-{[5-(3,4-dimethyl-phenyl)-isoxazole-3-carbonyl]-amino}-piperidine-3-carboxylic acid (1-pyrimidin-2-yl-cyclopropyl)-amide]	210
O=C(N[C@H]1CCN(CC2CC2)C[C@@H]1C(=O)NC1(c2ncccn2)CC1)c1cn(-c2ccc(F)cc2F)nn1 [Example 7.004, (3S,4S)-1-Cyclopropylmethyl-4-{[1-(2,4-difluoro-phenyl)-1H-[1,2,3]triazole-4-carbonyl]-amino}-piperidine-3-carboxylic acid (1-pyrimidin-2-yl-cyclopropyl)-amide]	64
Cc1ccc(-c2cc(C(=O)N[C@H]3CCN(CC4CC4)C[C@@H]3C(=O)NC3(c4ncccn4)CC3)no2)c(C)c1 [Example 7.005, (3S,4S)-1-Cyclopropylmethyl-4-{[5-(2,4-dimethyl-phenyl)-isoxazole-3-carbonyl]-amino}-piperidine-3-carboxylic acid (1-pyrimidin-2-yl-cyclopropyl)-amide]	36
O=C(N[C@H]1CCN(CC2CC2)C[C@@H]1C(=O)NC1(c2ncccn2)CC1)c1cc(-c2ccc(F)cc2F)no1 [Example 7.006, (3S,4S)-1-Cyclopropylmethyl-4-{[3-(2,4-difluoro-phenyl)-isoxazole-5-carbonyl]-amino}-piperidine-3-carboxylic acid (1-pyrimidin-2-yl-cyclopropyl)-amide]	8
O=C(N[C@H]1CCN(CC2CC2)C[C@@H]1C(=O)NC1(c2ncccn2)CC1)c1ncc(-c2ccc(F)cc2)o1 [Example 7.007, (3S,4S)-1-Cyclopropylmethyl-4-{[5-(4-fluoro-phenyl)-oxazole-2-carbonyl]-amino}-piperidine-3-carboxylic acid (1-pyrimidin-2-yl-cyclopropyl)-amide]	140
O=C(N[C@H]1CCN(CC2CC2)C[C@@H]1C(=O)NC1(c2ncccn2)CC1)c1noc(-c2ccc(F)cc2F)n1 [Example 7.008, (3S,4S)-1-Cyclopropylmethyl-4-{[5-(2,4-difluoro-phenyl)-[1,2,4]oxadiazole-3-carbonyl]-amino}-piperidine-3-carboxylic acid (1-pyrimidin-2-yl-cyclopropyl)-amide]	51
N#Cc1ccc(-c2cc(C(=O)N[C@H]3CCN(CC4CC4)C[C@@H]3C(=O)NC3(c4ncccn4)CC3)no2)cc1 [Example 7.009, (3S,4S)-4-{[5-(4-Cyano-phenyl)-isoxazole-3-carbonyl]-amino}-1-cyclopropylmethyl-piperidine-3-carboxylic acid (1-pyrimidin-2-yl-cyclopropyl)-amide]	240
O=C(N[C@H]1CCN(CC2CC2)C[C@@H]1C(=O)NC1(c2ncccn2)CC1)c1ncc(-c2ccc(F)cc2F)o1 [Example 7.011, (3S,4S)-1-Cyclopropylmethyl-4-{[5-(2,4-difluoro-phenyl)-oxazole-2-carbonyl]-amino}-piperidine-3-carboxylic acid (1-pyrimidin-2-yl-cyclopropyl)-amide]	78
O=C(N[C@H]1CCN(CC2CC2)C[C@@H]1C(=O)NC1(c2ncccn2)CC1)c1cn(-c2c(F)cc(F)cc2F)nn1 [Example 7.012, (3S,4S)-1-Cyclopropylmethyl-4-{[1-(2,4,6-trifluoro-phenyl)-1H-[1,2,3]triazole-4-carbonyl]-amino}-piperidine-3-carboxylic acid (1-pyrimidin-2-yl-cyclopropyl)-amide]	356
O=C(N[C@H]1CCN(CC2CC2)C[C@@H]1C(=O)NC1(c2ncccn2)CC1)c1cc(-c2ccc(F)c(F)c2)on1 [Example 7.013, (3S,4S)-1-Cyclopropylmethyl-4-{[5-(3,4-difluoro-phenyl)-isoxazole-3-carbonyl]-amino}-piperidine-3-carboxylic acid (1-pyrimidin-2-yl-cyclopropyl)-amide]	252
O=C(N[C@H]1CCN(CC2CC2)C[C@@H]1C(=O)NC1(c2ncccn2)CC1)c1cc(-c2ccc(F)cc2F)ns1 [Example 7.014, (3S,4S)-1-Cyclopropylmethyl-4-{[3-(2,4-difluoro-phenyl)-isothiazole-5-carbonyl]-amino}-piperidine-3-carboxylic acid (1-pyrimidin-2-yl-cyclopropyl)-amide]	629
O=C(N[C@H]1CCN(CC2CC2)C[C@@H]1C(=O)NC1(c2ncccn2)CC1)c1cc(-c2ccc(F)cc2F)sn1 [Example 7.015, (3S,4S)-1-Cyclopropylmethyl-4-{[5-(2,4-difluoro-phenyl)-isothiazole-3-carbonyl]-amino}-piperidine-3-carboxylic acid (1-pyrimidin-2-yl-cyclopropyl)-amide]	201
O=C(N[C@H]1CCN(CC2CC2)C[C@@H]1C(=O)NC1(c2ncccn2)CC1)c1nnc(-c2ccc(F)cc2F)s1 [Example 7.016, (3S,4S)-1-Cyclopropylmethyl-4-{[5-(2,4-difluoro-phenyl)-[1,3,4]thiadiazole-2-carbonyl]-amino}-piperidine-3-carboxylic acid (1-pyrimidin-2-yl-cyclopropyl)-amide]	2
(3R*,4R*)-1-Cyclohexyl-4-{[1-(2,4-difluoro-phenyl)-1H-[1,2,3]triazole-4-carbonyl]-amino}-piperidine-3-carboxylic acid ((1R*,2S*)-2-phenyl-cyclopropyl)-amide and (3R*,4R*)-1-Cyclohexyl-4-{[1-(2,4-difluoro-phenyl)-1H-[1,2,3]triazole-4-carbonyl]-amino}-piperidine-3-carboxylic acid ((1S*,2R*)-2-phenyl-cyclopropyl)-amide [Example 1.145]	363
(3R*,4R*)-1-Cyclohexyl-4-{[3-(2,4-difluoro-phenyl)-isoxazole-5-carbonyl]-amino}-piperidine-3-carboxylic acid ((1S*,2R)-2-phenyl-cyclopropyl)-amide and (3R*,4R*)-1-Cyclohexyl-4-{[3-(2,4-difluoro-phenyl)-isoxazole-5-carbonyl]-amino}-piperidine-3-carboxylic acid ((1R*,2S*)-2-phenyl-cyclopropyl)-amide [Example 1.147]	443
(3R*,4R*)-1-Cyclopentyl-4-{[1-(2,4-difluoro-phenyl)-1H-[1,2,3]triazole-4-carbonyl]-amino}-piperidine-3-carboxylic acid ((1S*,2R*)-2-phenyl-cyclopropyl)-amide and (3R*,4R*)-1-Cyclopentyl-4-{[1-(2,4-difluoro-phenyl)-1H-[1,2,3]triazole-4-carbonyl]-amino}-piperidine-3-carboxylic acid ((1R*,2S*)-2-phenyl-cyclopropyl)-amide [Example 1.146]	904
(3R*,4R*)-1-Cyclopentyl-4-{[3-(2,4-difluoro-phenyl)-isoxazole-5-carbonyl]-amino}-piperidine-3-carboxylic acid ((1S*,2R*)-2-phenyl-cyclopropyl)-amide and (3R*,4R*)-1-Cyclopentyl-4-{[3-(2,4-difluoro-phenyl)-isoxazole-5-carbonyl]-amino}-piperidine-3-carboxylic acid ((1R*,2S*)-2-phenyl-cyclopropyl)-amide [Example 1.148]	769
(3R*,4R*)-1-Cyclopropylmethyl-4-{[3-(2,4-difluoro-phenyl)-isoxazole-5-carbonyl]-amino}-piperidine-3-carboxylic acid ((1S*,2R*)-2-phenyl-cyclopropyl)-amide and (3R*,4R*)-1-Cyclopropylmethyl-4-{[3-(2,4-difluoro-phenyl)-isoxazole-5-carbonyl]-amino}-piperidine-3-carboxylic acid ((1R*,2S*)-2-phenyl-cyclopropyl)-amide [Example 1.164]	267
rac-(3R*,4R*)-1-Cyclohexyl-4-{[5-(2-difluoro-phenyl)-oxazole-2-carbonyl]-amino}-piperidine-3-carboxylic acid (1-pyridin-2-yl-cyclopropyl)-amide [Example 3.011]	22

Same assay, conditions: antagonistic effect on CXCR7; Tango CXCR7-bla U2OS cells; CXCL12/SDF1-α at its EC80; geometric mean

Compound	IC50 [nM]
O=C(N[C@H]1CCN(CC2CC2)C[C@@H]1C(=O)NC1(c2ncccn2)CC1)c1cc(-c2ccccc2)on1 [Reference Example 3, (3S,4S)-1-Cyclopropylmethyl-4-[(5-phenyl-isoxazole-3-carbonyl)-amino]-piperidine-3-carboxylic Acid (1-pyrimidin-2-yl-cyclopropyl)-amide, reference compound]	1330
